Assay type in all cases: cell-based
The target in one test is T1, human TLR9 (Homo sapiens, UniProt Q9NR96).
T1 construct: host or cells: HEK-Blue cells (HEK293-derived reporter line)
T1 sequence (Q9NR96 26-1032): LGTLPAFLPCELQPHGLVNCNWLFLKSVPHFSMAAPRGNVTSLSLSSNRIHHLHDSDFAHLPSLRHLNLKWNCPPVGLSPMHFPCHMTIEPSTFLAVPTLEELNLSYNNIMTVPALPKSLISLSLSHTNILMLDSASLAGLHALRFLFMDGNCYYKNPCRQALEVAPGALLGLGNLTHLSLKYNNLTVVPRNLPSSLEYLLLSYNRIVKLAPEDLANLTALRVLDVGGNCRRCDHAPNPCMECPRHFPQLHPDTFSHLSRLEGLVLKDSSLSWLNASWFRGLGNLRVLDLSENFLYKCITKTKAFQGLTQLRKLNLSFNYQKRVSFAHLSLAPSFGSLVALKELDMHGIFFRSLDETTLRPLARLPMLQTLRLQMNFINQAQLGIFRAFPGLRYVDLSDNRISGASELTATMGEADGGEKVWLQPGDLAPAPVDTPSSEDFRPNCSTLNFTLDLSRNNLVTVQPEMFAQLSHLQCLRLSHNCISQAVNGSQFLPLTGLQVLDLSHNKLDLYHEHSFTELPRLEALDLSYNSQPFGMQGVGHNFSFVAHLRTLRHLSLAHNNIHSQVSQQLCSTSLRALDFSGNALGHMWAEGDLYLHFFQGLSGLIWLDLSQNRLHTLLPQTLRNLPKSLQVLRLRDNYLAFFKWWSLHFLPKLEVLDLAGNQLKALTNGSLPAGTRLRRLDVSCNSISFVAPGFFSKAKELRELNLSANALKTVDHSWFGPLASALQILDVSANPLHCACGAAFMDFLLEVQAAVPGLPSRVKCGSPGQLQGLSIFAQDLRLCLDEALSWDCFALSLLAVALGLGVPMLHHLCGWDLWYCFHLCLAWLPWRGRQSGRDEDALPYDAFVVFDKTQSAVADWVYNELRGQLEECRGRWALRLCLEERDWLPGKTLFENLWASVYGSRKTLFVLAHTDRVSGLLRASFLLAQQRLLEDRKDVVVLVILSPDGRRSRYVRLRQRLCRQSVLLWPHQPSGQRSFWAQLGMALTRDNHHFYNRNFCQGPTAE
Briefly: TLR9 inhibition reporter assay (HEK-Blue cells, secreted embryonic alkaline phosphatase reporter). Summed up: (§1)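 HEK-Blue cells expressing human TLR7, TLR8 or TLR9 with an NF-κB/AP-1-driven SEAP reporter were pretreated with compound (0.05 nM–50 μM final) for 30 min at room temperature. Agonists were gardiquimod 7.5 μM for TLR7, R848 15.9 μM for TLR8 and ODN2006 5 nM for TLR9. SEAP was read after 22 h at 37 °C, and inhibition was calculated relative to agonist-plus-DMSO and known-inhibitor controls.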
(In general: A reporter such as luciferase makes a cellular process visible.)

For a further test, the target named is T2, human TLR7 (Homo sapiens, UniProt Q9NYK1).
T2 construct: host or cells: HEK-Blue cells (HEK293-derived reporter line)
T2 sequence (Q9NYK1 27-1049): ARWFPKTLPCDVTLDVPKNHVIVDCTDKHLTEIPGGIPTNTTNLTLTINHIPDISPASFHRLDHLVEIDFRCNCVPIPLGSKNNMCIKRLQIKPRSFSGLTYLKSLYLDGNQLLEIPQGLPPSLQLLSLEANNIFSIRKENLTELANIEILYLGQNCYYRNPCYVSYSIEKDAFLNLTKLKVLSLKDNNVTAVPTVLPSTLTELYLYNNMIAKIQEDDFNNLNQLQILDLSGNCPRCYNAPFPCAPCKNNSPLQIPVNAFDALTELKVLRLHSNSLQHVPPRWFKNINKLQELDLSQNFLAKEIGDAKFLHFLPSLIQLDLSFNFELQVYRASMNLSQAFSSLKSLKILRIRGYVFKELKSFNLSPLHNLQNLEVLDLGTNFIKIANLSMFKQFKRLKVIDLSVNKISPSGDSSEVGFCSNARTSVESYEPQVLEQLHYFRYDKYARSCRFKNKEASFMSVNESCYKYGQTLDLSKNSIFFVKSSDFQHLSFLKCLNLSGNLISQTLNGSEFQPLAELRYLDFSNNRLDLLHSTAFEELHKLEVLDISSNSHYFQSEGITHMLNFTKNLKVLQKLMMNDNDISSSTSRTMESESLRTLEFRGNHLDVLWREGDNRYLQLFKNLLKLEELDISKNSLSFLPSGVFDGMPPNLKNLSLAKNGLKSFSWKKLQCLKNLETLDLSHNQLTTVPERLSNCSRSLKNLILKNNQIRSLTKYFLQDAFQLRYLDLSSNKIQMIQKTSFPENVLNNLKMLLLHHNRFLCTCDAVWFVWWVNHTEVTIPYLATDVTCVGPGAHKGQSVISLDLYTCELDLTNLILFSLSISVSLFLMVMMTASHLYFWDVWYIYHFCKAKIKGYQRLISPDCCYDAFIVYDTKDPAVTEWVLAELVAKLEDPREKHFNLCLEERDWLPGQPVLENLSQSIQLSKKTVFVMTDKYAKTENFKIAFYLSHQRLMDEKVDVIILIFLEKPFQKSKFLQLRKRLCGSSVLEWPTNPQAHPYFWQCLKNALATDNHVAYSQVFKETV
Briefly: TLR7 inhibition reporter assay (HEK-Blue cells, secreted embryonic alkaline phosphatase reporter). The settings on record: HEK-Blue cells overexpressing human TLR7, stimulated with gardiquimod 7.5 μM; read-out: TLR 7 IC50. Summed up:
as §1

The target in a further test is T3, human TLR8 (Homo sapiens, UniProt Q9NR97).
T3 construct: host or cells: HEK-Blue cells (HEK293-derived reporter line)
T3 sequence (Q9NR97 27-1041): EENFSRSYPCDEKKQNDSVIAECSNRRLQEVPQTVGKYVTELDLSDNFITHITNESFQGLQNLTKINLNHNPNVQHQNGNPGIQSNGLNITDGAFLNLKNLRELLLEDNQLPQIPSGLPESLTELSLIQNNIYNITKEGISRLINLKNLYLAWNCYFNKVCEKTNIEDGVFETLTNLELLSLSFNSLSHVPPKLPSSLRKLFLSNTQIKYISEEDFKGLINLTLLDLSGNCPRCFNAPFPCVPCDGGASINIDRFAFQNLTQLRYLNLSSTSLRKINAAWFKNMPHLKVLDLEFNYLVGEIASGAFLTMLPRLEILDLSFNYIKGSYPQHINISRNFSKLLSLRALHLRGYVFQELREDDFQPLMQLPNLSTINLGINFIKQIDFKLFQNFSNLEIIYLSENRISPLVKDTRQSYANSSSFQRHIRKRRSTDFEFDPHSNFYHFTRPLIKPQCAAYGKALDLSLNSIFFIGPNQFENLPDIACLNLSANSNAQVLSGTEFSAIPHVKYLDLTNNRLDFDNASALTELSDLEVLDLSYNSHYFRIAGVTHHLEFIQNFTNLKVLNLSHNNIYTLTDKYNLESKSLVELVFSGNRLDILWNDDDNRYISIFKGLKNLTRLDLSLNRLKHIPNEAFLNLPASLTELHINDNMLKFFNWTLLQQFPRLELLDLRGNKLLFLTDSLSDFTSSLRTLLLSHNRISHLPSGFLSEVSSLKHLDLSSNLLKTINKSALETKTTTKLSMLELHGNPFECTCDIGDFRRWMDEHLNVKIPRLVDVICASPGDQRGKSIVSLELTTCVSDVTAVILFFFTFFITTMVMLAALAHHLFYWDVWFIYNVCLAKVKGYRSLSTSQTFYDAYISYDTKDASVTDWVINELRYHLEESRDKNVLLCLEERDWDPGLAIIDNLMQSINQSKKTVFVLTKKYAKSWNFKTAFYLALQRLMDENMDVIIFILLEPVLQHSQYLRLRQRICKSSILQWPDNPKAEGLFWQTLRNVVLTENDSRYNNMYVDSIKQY
Briefly: TLR8 inhibition reporter assay (HEK-Blue cells, secreted embryonic alkaline phosphatase reporter). The note with it: HEK-Blue cells overexpressing human TLR8, stimulated with R848 15.9 μM; read-out: TLR 8 IC50. The method in brief: as §1

Where [1] appears, read: HEK-Blue cells overexpressing human TLR9, stimulated with ODN2006 5 nM, read-out: TLR 9 IC50.
Where [2] appears, read: HEK-Blue human TLR9 reporter cells.

Our source for the IC50 values is patent US12492188B2, “1H-benzo[D]imidazole derivatives as TLR9 inhibitors for the treatment of fibrosis” (BRISTOL-MYERS SQUIBB COMPANY, priority 2020, dated 2025).

Usually IC50 stands for the point on the concentration scale where inhibition reaches its midpoint.

Read-outs that look alike come from different tables or passages of the source.

Turning to `CC(C)CN1CCCC(N2CCC(c3cc(F)c4nc(-c5ccc(S(C)(=O)=O)cc5)n(C)c4c3)CC2)CC1` (stereo not shown) [Example 297, 4-fluoro-6-(1-(1-isobutylazepan-4-yl)piperidin-4-yl)-1-methyl-2-(4-(methylsulfonyl)phenyl)-1H-benzo[d]imidazole], the half-inhibitory concentration (IC50) at human TLR9 (setting [1]) is 0.023 µM; on human TLR9 (setting [2]), 0.023 µM; at human TLR7 it was 12.5 µM; on human TLR8, more than 50 µM.
`Cn1c(-c2ccc(S(C)(=O)=O)cc2)nc2c(F)cc(C3CCN(C4CCCN(C5CCOCC5)CC4)CC3)cc21` (stereo not shown) [Example 300, 4-fluoro-1-methyl-2-(4-(methylsulfonyl)phenyl)-6-(1-(1-(tetrahydro-2H-pyran-4-yl)azepan-4-yl)piperidin-4-yl)-1H-benzo[d]imidazole]: the IC50 at human TLR9 (setting [1]) is 0.02 µM; against human TLR9 (setting [2]) it was 0.02 µM; on human TLR7 it was 2.9 µM; on human TLR8 it was more than 50 µM.
`Cn1c(-c2ccc(S(C)(=O)=O)cc2)nc2c(F)cc(C3CCN(C4CCCN(C5CCOCC5)CC4)CC3)cc21` (stereo not shown) [Example 301, 4-fluoro-1-methyl-2-(4-(methylsulfonyl)phenyl)-6-(1-(1-(tetrahydro-2H-pyran-4-yl)azepan-4-yl)piperidin-4-yl)-1H-benzo[d]imidazole]: the IC50 is 0.048 µM at human TLR9 (setting [1]), 0.048 µM against human TLR9 (setting [2]), 3.1 µM at human TLR7 and more than 50 µM at human TLR8.
Regarding `Cc1cc(C2CCN(C3CCCN(C4COC4)CC3)CC2)cc2c1nc(-c1ccc(S(C)(=O)=O)cc1)n2C` (stereo not shown) [Example 304, 1,4-dimethyl-2-(4-(methylsulfonyl)phenyl)-6-(1-(1-(oxetan-3-yl)azepan-4-yl)piperidin-4-yl)-1H-benzo[d]imidazole], the IC50 at human TLR9 (setting [1]) is 0.18 µM; on human TLR9 (setting [2]), 0.18 µM; on human TLR7, 12.3 µM; at human TLR8 it was more than 50 µM.
With `Cc1cc(C2CCN(C3CCCN(C4COC4)CC3)CC2)cc2c1nc(-c1ccc(S(C)(=O)=O)cc1)n2C` (stereo not shown) [Example 305, 1,4-dimethyl-2-(4-(methylsulfonyl)phenyl)-6-(1-(1-(oxetan-3-yl)azepan-4-yl)piperidin-4-yl)-1H-benzo[d]imidazole], the IC50 is 0.09 µM at human TLR9 (setting [1]), 0.09 µM against human TLR9 (setting [2]), 8.6 µM on human TLR7 and more than 50 µM at human TLR8.
On to `CC(C)CN1CCCC(N2CCC(c3ccc4nc(-c5ccc(S(C)(=O)=O)cc5)n(C)c4c3F)CC2)CC1` (stereo not shown) [Example 310, 7-fluoro-6-(1-(1-isobutylazepan-4-yl)piperidin-4-yl)-1-methyl-2-(4-(methylsulfonyl)phenyl)-1H-benzo[d]imidazole], for which the IC50 on human TLR9 (setting [1]) is 0.046 µM; on human TLR9 (setting [2]), 0.047 µM; at human TLR7 it was more than 50 µM; on human TLR8 it was more than 50 µM.
As to `CC(C)CN1CCCC(N2CCC(c3ccc4nc(-c5ccc(S(C)(=O)=O)cc5)n(C)c4c3F)CC2)CC1` (stereo not shown) [Example 311, 7-fluoro-6-(1-(1-isobutylazepan-4-yl)piperidin-4-yl)-1-methyl-2-(4-(methylsulfonyl)phenyl)-1H-benzo[d]imidazole], the IC50 on human TLR9 (setting [1]) is 0.072 µM; at human TLR9 (setting [2]), 0.072 µM; on human TLR7, more than 50 µM; on human TLR8, more than 50 µM.
For the molecule `Cn1c(-c2ccc(S(C)(=O)=O)cc2)nc2ccc(C3CCN(C4CCCN(C5CCC5)CC4)CC3)c(F)c21` (stereo not shown) [Example 312, 6-(1-(1-cyclobutylazepan-4-yl)piperidin-4-yl)-7-fluoro-1-methyl-2-(4-(methylsulfonyl)phenyl)-1H-benzo[d]imidazole], the IC50 on human TLR9 (setting [1]) is 0.064 µM; against human TLR9 (setting [2]), 0.064 µM; at human TLR7 it was more than 50 µM; at human TLR8 it was more than 50 µM.
Take `Cn1c(-c2ccc(S(C)(=O)=O)cc2)nc2ccc(C3CCN(C4CCCN(C5CCC5)CC4)CC3)c(F)c21` (stereo not shown) [Example 313, 6-(1-(1-cyclobutylazepan-4-yl)piperidin-4-yl)-7-fluoro-1-methyl-2-(4-(methylsulfonyl)phenyl)-1H-benzo[d]imidazole]: the IC50 is 0.069 µM on human TLR9 (setting [1]), 0.069 µM at human TLR9 (setting [2]), more than 50 µM at human TLR7 and more than 50 µM at human TLR8.
Regarding `Cn1c(-c2ccc(S(C)(=O)=O)cc2)nc2ccc(C3CCN(C4CCCN(C5COC5)CC4)CC3)c(F)c21` (stereo not shown) [Example 314, 7-fluoro-1-methyl-2-(4-(methylsulfonyl)phenyl)-6-(1-(1-(oxetan-3-yl)azepan-4-yl)piperidin-4-yl)-1H-benzo[d]imidazole], the IC50 on human TLR9 (setting [1]) was 0.192 µM; at human TLR9 (setting [2]) it was 0.19 µM; at human TLR7 it was 6.1 µM; on human TLR8, more than 50 µM.
